Results taken from patent US20230035403A1, “Method For Determining Responsiveness To Prostate Cancer Treatment” (Janssen Biotech, Inc., priority 2020, published 2023).

Tests used:
[1] = test system: CD8+ T cells in PBMCs from patients with metastatic castrate-resistant prostate cancer; assay: Patient PBMC restimulation assay (in vitro immunogenicity of neoantigens); format: cell-based, human; conditions: for Immunogenic: Patient PBMC restimulation, TNFα and IFNγ production by CD8+ T cells; for Maximum fold change over negative control: TNFα+IFNγ+CD8+ T cells, highest fold change across the PBMC donors evaluated, 9 mer peptide; for Maximum frequency of TNFα^+IFNγ^+CD8^+ T cells (Percent): greatest frequency among all tested PBMC donors, negative control 0.011-0.8 depending on patient
Procedure: PBMCs from human patients with metastatic castrate-resistant prostate cancer were thawed using media (RPMI 1640 supplemented with Glutamax, 10% HI FBS, and 1× Sodium Pyruvate). Cells were counted and plated in a 96 well round bottom microplate at a concentration of 250,000 viable cells per well. Lyophilized peptides were solubilized in 100% DMSO and diluted in media to 10 μg/mL. Neoantigen peptides were added in equal volume to PBMCs for a final concentration of 5 μg/mL. CEF Peptide Pool “Plus” (Cellular Technologies, Ltd.) was utilized as a positive control and DMSO at the same final concentration as the experimental peptides was utilized as a negative control. Human IL-15 (Peprotech) was added to all wells at final concentration of 10 ng/mL.
Plates were incubated at 37° C. (5% CO2) for a total of 13 days. Media was refreshed every 2 days with IL-15 (10 ng/mL final concentration) and IL-2 (R&D systems, 10 IU/mL final concentration). On day 12, PBMCs were re-stimulated with identical experimental peptides or controls, at same concentration as peptide stimulation on Day 1. After 1-hour incubation, protein Inhibitor Cocktail (eBioscience) was added to every well and plate was incubated overnight.
(§1) On day 13, cells were stained for intracellular flow cytometry analysis. The cells were washed with PBS and stained with Live/Dead Fixable Aqua Dead Cell stain (Thermo-Fisher). Following the live/dead stain, cells were blocked using Biotin-Free Fc Receptor Blocker (Accurate Chemical & Scientific Corp). Extracellular cellular flow panel (1 μL/antibody per well in 50 μL) consisted of CD3 PerCP-Cy5.5 (Biolegend), CD4 BV421 (Biolegend), and CD8 APC-Cy7 (Biolegend). After extracellular staining, cells were fixed using Foxp3/Transcription Factor Staining Buffer Set (eBioscience) and stained for intracellular proteins (1:50 dilution) using TNFα FITC (R&D Systems) and IFNγ BV785 (Biolegend). Cells were washed and resuspended in stain buffer and analyzed using a BD Celesta flow cytometer.
Flow cytometry cell staining analysis was completed using FlowJo v10. Cells were gated on live, singlet, CD3+ cells. The CD8+ T cells were analyzed for TNFα/IFNγ expression and the frequency of double positive TNFα/IFNγ CD8+ T cells was recorded. Responses were assessed to be positive when the frequency of double positive TNFα/IFNγ CD8+ T cells due to stimulation with an experimental peptide was increased greater than or equal to 2-fold over the DMSO only negative control for that patient. Peptides were analyzed in 1 to 7 patient samples.
The 9 mer fragments shown in Table 13 were assessed for their ability to activate T cells using the Patient PBMC restimulation assay described in Example 1 using TNFα and IFNγ production by CD8^+ T cells as a readout. Self-antigens shown in Table 15 were also used in the assays. […] PBMCs from ten patients were evaluated.

[2] = test system: autologous CD3+ Pan-T cells (CD8+ and CD4+ T cells) with peptide-pulsed CD1c+ Dendritic Cells; assay: Exogenous autologous normal donor restimulation assay (in vitro immunogenicity); format: cell-based, human; parameters: key to Max. Frequency of CD8+ TNFαINFγ DP / Max. Frequency of CD4+ TNFαINFγ DP: % of T cells double positive for TNFα/IFNγ; conditions: pool of overlapping 15-mer peptides, maximum across normal donors; for Maximum Fold Change Over Background CD4+ cells / Maximum Fold Change Over Background CD8+ cells / Maximum Frequency of TNFα/IFNγ Double Positive CD4+ T cells / Maximum Frequency of TNFα/IFNγ Double Positive CD8+ T cells: Table 25; for Maximum Fold Change Over Background CD4+ cells: TNFα+IFNγ+ CD4+ T cells; for Maximum Fold Change Over Background CD4+ cells / Maximum Fold Change Over Background CD8+ cells: over negative control; for Maximum Fold Change Over Background CD8+ cells: TNFα+IFNγ+ CD8+ T cells; for Max. Fold Change over background CD4+ TNFαINFγ double positive DP / Max. Fold Change over background CD8+ TNFαINFγ double positive DP / Max. Frequency of CD4+ TNFαINFγ DP / Max. Frequency of CD8+ TNFαINFγ DP: Table 28, additional neoantigens
Procedure: CD1c+ Dendritic Cells (DC) isolated from human normal PBMCs were thawed using media (IMDM (Gibco) supplemented with glutamine, HEPES, 5% human serum (Sigma), and 1× Pen-Strep). DC cells were resuspended in media supplemented with IL-4 (Peprotech, 80 ng/mL) and GM-CSF (Gibco, 80 ng/mL), plated in 6 well microplates, and rested overnight at 37° C. (5% CO2). The following day, DC cells were counted and plated in a 96 well round bottom microplate at a concentration of 30,000 viable cells per well. Lyophilized peptides (15-mer overlapping peptides) were solubilized in 100% DMSO and pooled by neoantigen to between 5 mg/mL and 20 mg/mL. Neoantigen peptides pools were added to DCs for a final concentration of 2.5 μg/mL to 10 μg/mL and rested for 2 hours at 37° C. (5% CO2). CEF Peptide Pool “Plus” (Cellular Technologies, Ltd.) was utilized as a positive control and DMSO at the same final concentration as the experimental peptides was utilized as a negative control. After 2 hours, DC cells were irradiated with 50 gray of ionizing radiation. Autologous CD3+ Pan-T cells isolated from human normal PBMCs were thawed using media. Following irradiation, autologous Pan-T cells were added to the irradiated DCs at 300,000 viable cells per well. Human IL-15 (Peprotech) was added to all wells at final concentration of 10 ng/mL.
Plates were incubated at 37° C. (5% CO2) for a total of 12 days. Media was refreshed every 2-3 days with IL-15 (10 ng/mL final concentration) and IL-2 (R&D systems, 10 IU/mL final concentration). On day 11 cells were re-stimulated with identical experimental peptide pools or controls, at same concentration as peptide stimulation on Day 1. Protein Inhibitor Cocktail (eBioscience) was added to every well and plate was incubated overnight at 37° C. (5% CO2).
as §1, with “12,” for “13,”
Flow cytometry cell staining analysis was completed using FlowJo v10. Cells were gated on live, singlet, CD3+ cells. The CD8+ and CD4+ T cells were analyzed for TNFα/IFNγ expression and the frequency of double positive TNFα/IFNγ CD8+ and the frequency of double positive TNFα/IFNγ CD4+ T cells were recorded. Responses were assessed to be positive when the frequency of double positive TNFα/IFNγ CD8+ or TNFα/IFNγ CD4+ T cells due to stimulation with an experimental peptide pool was increased greater than or equal to 3-fold over the DMSO only negative control for that donor and at least 0.01%.
Overlapping 15-mer peptides were designed to span each neoantigen incorporated into NeoGAd20 and NeoMVA to assess their ability to activate T cells using the exogenous autologous normal donor restimulation assay described in Example 1 as pools using TNFα and IFNγ production by CD8^+ and CD4^+ T cells as a readout.
Immunogenicity of various additional identified neoantigens was assessed. Overlapping 15-mer peptides were designed to span each neoantigen similarly to what was done in Example 11 to assess their ability to activate T cells using the exogenous autologous normal donor restimulation assay described in Example 1 as pools using TNFα and IFNγ production by CD8^+ and CD4^+ T cells as a readout.

| Substance | Immunogenic [1] | Maximum fold change over negative control [1] | Maximum frequency of TNFα^+IFNγ^+CD8^+ T cells (Percent) [1] [%] | Maximum Fold Change Over Background CD4+ cells [2] | Maximum Fold Change Over Background CD8+ cells [2] | Maximum Frequency of TNFα/IFNγ Double Positive CD4+ T cells [2] | Maximum Frequency of TNFα/IFNγ Double Positive CD8+ T cells [2] | Max. Fold Change over background CD4+ TNFαINFγ double positive DP [2] | Max. Fold Change over background CD8+ TNFαINFγ double positive DP [2] | Max. Frequency of CD4+ TNFαINFγ DP [2] | Max. Frequency of CD8+ TNFαINFγ DP [2] |
| --- | --- | --- | --- | --- | --- | --- | --- | --- | --- | --- | --- |
| GVPGDSTRRAVRRMNTF [Neoantigen P16] | Yes | 65.82 | 4.620 | 2.44 | 2.44 | 0.039 | 0.039 |  |  |  |  |
| HYKLIQQPISLFSITDRLHKTFSQLPSVHLCSITFQWGHPPIFCSTNDICVTANFCISVTFLKPCFLLHEASASQ [MS1] |  |  |  | 50.19 | 5.56 | 0.39 | 0.1 |  |  |  |  |
| NSKMALNSLNSIDDAQLTRIAPPRSHCCFWEVNAP [Neoantigen P35] | Yes | 2.67 | 0.064 | 3.47 | 14.44 | 0.03 | 0.26 |  |  |  |  |
| P19 (IPVLTRWPL) [Neoantigen P19] |  |  |  |  |  |  |  | 6.67 | 4.76 | 0.16 | 0.15 |
| P27 (FPVGAEGTF) [Neoantigen P27] |  |  |  |  |  |  |  | 45.38 | 7.87 | 0.05 | 0.59 |
| P27 (FPVGAEGTF) [Peptide P27] | Yes | 3.43 | 0.430 |  |  |  |  |  |  |  |  |
| P37 (GVLRRLLCR) [Neoantigen P37] |  |  |  |  |  |  |  | 22.78 | 2.05 | 0.09 | 0.13 |
| P37 (GVLRRLLCR) [Peptide P37] | Yes |  | 1.160 |  |  |  |  |  |  |  |  |
| P50 (IQYSCMGLM) [Peptide P50] | Yes | 5.14 | 0.190 |  |  |  |  |  |  |  |  |
| P59 (NMVENGCYL) [Peptide P59] | Yes | 10.75 | 3.010 |  |  |  |  |  |  |  |  |
| P97 (LMAQRLLLR) [Neoantigen P97] |  |  |  |  |  |  |  | 3.14 | 7.47 | 0.12 | 1.11 |
| TMPAILKLQKNCLLSL [MS8] |  |  |  | 15.60 | 4.44 | 0.40 | 0.14 |  |  |  |  |
| YAYKDFLWCFPFSLVFLQEIQICCHVSCLCCICCSTRICLGCLLELFLSRALRALHVLWNGFQLHCQ [MS6] |  |  |  | 111.97 | 4.17 | 0.87 | 0.08 |  |  |  |  |
